A melting point compilation (Tetko et al.; mined from patent text by program, amines drawn as free bases though some values may be those of a salt)

melting point [°C] | SMILES
97 to 98 | CSCc1noc(-c2cc(C(C)(C)C)c(O)c(C(C)(C)C)c2)n1
138 | COC(=O)C1=C(CCc2ccccc2)NC(CC(=O)N2CCN(C)CC2)=C(C(=O)OC)C1c1ccccc1Cl (configuration not stated)
129 to 131 | CCCCOc1cc(C(=O)O)cc(S(N)(=O)=O)c1-c1ccccc1
93 to 95 | O=C(Cc1ccc(C(F)(F)F)cc1)c1ccc(F)cc1
281 | FC(F)(F)c1cccc(-c2c[nH]c(C3CCN(c4ncnc5[nH]ncc45)CC3)n2)c1
83 to 83.5 | COc1ccc(C2=NCCc3c(C)cccc32)cc1
120 | CCOCC1=C(C(=O)OCC)C(c2ccc(OC)c(F)c2)C(C(=O)OCC)=C(C)N1 (configuration not stated)
229 | OCC1OC(n2cnc3c(N4CCCC4)nc(Cl)nc32)C(O)C1O (configuration not stated)
95 to 97.7 | O=C(OCc1ccccc1)N1CCOc2c(Br)cc(Cl)cc21
114 to 116 | COC(=O)c1ccccc1Nc1cccc(C(C)NO)c1C (configuration not stated)
130 to 132 | COc1cc(Nc2c(C#N)cnc3cc(OCCCN4CCC(N5CCCCC5)CC4)c(OC)cc23)c(Cl)cc1Cl
81 to 82 | CCC(O)P(=O)(OCc1ccccc1)OCc1ccccc1 (configuration not stated)
216 to 217 | CN(C)C1CCN(C(=O)c2ccc(-c3[nH]nc4c3C(=O)c3c(NC(=O)NN5CCOCC5)cccc3-4)s2)C1 (configuration not stated)
112 | CC(=O)OC1CSC(Oc2cccc(-c3ccncc3)c2)C(OC(C)=O)C1OC(C)=O (configuration not stated)
184 to 187 | COc1ccc(N=C2SC(=CC(=O)O)C(=O)N2c2ccc(OC)cc2)cc1
104 | CC(C)n1cnc2c(Cl)nc(I)nc21
172 to 174 | COc1cccc2c1C(C)(C)CC(O)(C(F)(F)F)C2Nc1cccc2c1cnn2C (configuration not stated)
180 | O=C1NC(=Cc2ccc(Cl)cc2Cl)C(=O)C1=NO
174 to 177 | COC(=O)COc1ccc2cc(-c3csc(Cc4c(Cl)cccc4Cl)n3)ccc2c1
152 to 153 | CC1=NN(C(=O)NS(=O)(=O)c2ncccc2C(F)(F)F)C(C)(c2ccccc2)C1 (configuration not stated)
175 to 176 | COCCCNC(=O)Nc1ccc(N2CCOCC2)cc1C(=O)NCC1CCN(C(c2ccccc2)c2ccccc2)CC1
85 to 87 | O=C(CBr)OCC1OC(Sc2ccccc2)C(OCc2ccccc2)C(OCc2ccccc2)C1OCc1ccccc1 (configuration not stated)
166 | CSC(=N)Nc1ccc(Cl)c(Cl)c1
127 to 128 | COc1cc(/C=C/c2ccc(C(C)(C)C)cc2)cc(OC)c1OC

melting point [°C] | SMILES
113 to 114 | Clc1ccc(OC2CN(C(c3ccccc3)c3ccccc3)C2)cc1
72 to 74 | Cc1cn(C(C)C(=O)N2CCCC2)nc1-c1ccccc1 (configuration not stated)
122 to 123 | O=Cc1ccc(-c2ccc(OCc3ccccc3)cc2)cc1
138 to 139 | COc1ccc(CN2C(=O)C3(COc4cc5onc(C)c5cc43)c3ccccc32)cc1 (configuration not stated)
108 | CCOC(=O)c1cc2cc(F)c(F)cc2nc1Cl
135 to 136 | Cn1cc(-c2ccccc2)c(=O)c(-c2cccc([N+](=O)[O-])c2)c1
56 to 57 | CCCCOc1c(NCCCBr)c(=O)c1=O
266 to 268 | Cc1cnc(N2C(=O)C(O)=C(C(=O)c3ccc(C(C)C)cc3)C2c2ccc(OC(F)(F)F)cc2)cn1 (configuration not stated)
165 to 168 | COc1ccc(C(=O)Nc2ccccc2)cc1NC(=S)Nc1cccc(Cl)c1
117 to 118 | O=C(c1cc2cc(OCCNC[C@H](O)COc3ccccc3)ccc2o1)N1CCCC1
191 to 192 | CCCCn1nc(Cc2ccc(-c3ccccc3-c3nnn[nH]3)cc2)c(C(=O)O)c1CC
173 | O=C(CCO)N[C@H]1CC[C@H](CCN2CCN(c3nccc4c3CCO4)CC2)CC1
238 to 242 | COc1ccc(-c2nnc(O)nc2-c2ccc(OC)cc2)cc1
86 to 87 | CCOC(=O)C=C1CSC2=C1SCC=NC2
128 to 129 | COc1cc(NS(=O)(=O)c2cccs2)c2[nH]c(C(=O)NCCSC(c3ccccc3)(c3ccccc3)c3ccccc3)cc2c1
31 to 33 | O=C(CCCO)N1CCCCC1
216 to 218 | Nc1nc(N)nc(Cc2cc3ccccc3s2)n1
258 to 260 | N#CNC(=S)Nc1cccc(Cl)c1
108 | COc1ccccc1NC(=O)Nc1nc(Nc2ccccc2-c2ccccc2)nc(N(CCC(=O)O)Cc2ccc(F)cc2)n1
179 to 180 | Cn1cnc(COc2nc3c(cc2C(C)(C)C)nnn3-c2ccccc2)n1
225 | COc1cc2ncc3c4cc5c(cc4ccc3c2cc1OC)OCO5
114 to 116 | Cc1nc(-n2cc(CCc3ccccc3)nn2)sc1C(=O)NCc1cccnc1
134 to 135 | CS(=O)(=O)c1ccc(C2=C(c3ccc(F)cc3)CC(CF)(CF)C2)cc1
130 to 132 | Cn1nc(-c2c(Cl)cncc2Cl)nc1Cc1ccncc1

melting point [°C] | SMILES
117 to 119 | OCCC(=C(c1ccccc1)c1ccccc1)c1ccccc1
174 to 176 | CC(C)(C)N1CN(c2ccccc2)C2=NN=CC2=C1N
56 to 57 | c1ccc(CN2CCC(COc3ccccc3)CC2)cc1
110 to 113 | CCc1nc(C(=O)OC)c(OC)c(N)c1F
77 to 79.5 | CC1(C)CC(=O)C(S(=O)CC2CCCCC2)=C(O)C1 (configuration not stated)
96 to 98 | O=CN1CCN(C(=O)CCBr)CC1
148 to 150 | N[C@@H]1CCc2c(ccc(OCc3ccccc3)c2CO)[C@H]1O (relative stereo)
151 to 155 | C=CCCc1ccc(C(=O)O)c(O)n1
75.5 to 76.5 | CCOc1ccc2c(c1)C(C)=CC(C)(C)N2C(=O)Cl
106 to 109 | CN(Cc1ccccc1)C(=O)/C=C/c1cc(Cl)cnc1N
116 | O=C1[C@@H]2C[C@H](Oc3ccc(Br)cc3)CN2C(=O)N1c1cc(Cl)cc(Cl)c1
60 to 65 | COc1ccc2c(c1)c(CC(=O)OCCNC(=O)C1=CN(C)C=CC1)c(C)n2C(=O)c1ccc(Cl)cc1
131 to 132 | CC1CCN(C(=O)[C@H](CCCSc2ccccn2)NS(=O)(=O)c2ccc3ccccc3c2)CC1
120 to 121 | O=C1CC2O/C(=C/C3(C(=O)OCc4ccccc4)C=CC=CC3)CN12 (configuration not stated)
169 to 170 | CC1(C)OCc2cc([C@@H](O)C(=O)N[C@H]3CCc4ccc(O)cc4C3)ccc2O1
35 to 36 | CC(C)(C)C(=O)OC1CCCCC1=O (configuration not stated)
158 to 159 | CC(=O)OC1OCC[C@@H]1NC(=O)[C@H](CC(C)C)NC(=O)OCc1ccccc1 (some centres not stated)
132 to 133 | COc1cc(OC)nc(C(C)c2ccccc2NS(=O)(=O)C(F)(F)F)n1 (configuration not stated)
106 to 116 | CCOC(=O)C1=CC(=NO)[C@@H](NC(C)=O)[C@@H]2OC(C)(C)O[C@H]12
158 to 164 | OC1(c2ccc(Cl)cc2)CCCNC12CCCCC2 (configuration not stated)
242 to 244 | CC(C)n1nc(-c2c(-c3ccccc3)nc(N)nc2-n2cnc3ccccc32)ccc1=O
80 to 82 | CCCCCCCCS(=O)c1ccc(CC(N)(CO)CO)cc1 (configuration not stated)
131 to 133 | COC(=O)c1c(C(C)(C)O)nc(C(C)OC)n1Cc1ccc(-c2ccccc2-c2nnnn2C(c2ccccc2)(c2ccccc2)c2ccccc2)cc1 (configuration not stated)
255 to 257 | N#Cc1ccsc1-c1[nH]c(=O)c(-c2ccccc2)cc1C(=O)O

melting point [°C] | SMILES
93 to 94 | O=C(O)CSCCCCCNS(=O)(=O)c1ccc(Cl)cc1
128 to 129 | O=S(=O)(NC(CCCN1CCN(c2ncc(F)cn2)CC1)c1ccc(F)cc1)c1ccc(F)cc1 (configuration not stated)
145 to 147 | CN(CC(C)(C)c1ccc(Cl)c(Cl)c1)C(=O)Nc1c(F)cc(F)cc1CCc1cc(C(C)(C)C)c(O)c(C(C)(C)C)c1
77 to 79 | CC(=O)Oc1ccccc1C(=O)Oc1cccc(CO)c1
252 to 253 | CC(=NNC(=N)N)c1sc(-c2ccc(C(C)(C)C)cc2)nc1C
78 to 81 | COc1c(Cl)ccc(-c2cc(N)c(Cl)c(C(=O)N3CC=CCO3)n2)c1F
193 to 195 | CON=C(C)CC(C)(C)Cn1c(C)nc2c(N)nc3ccccc3c21
162 to 163 | CNC(=O)C(O)C(Oc1ccccc1[N+](=O)[O-])c1ccccc1 (configuration not stated)
168 to 169 | CC(C)(C)CC(C)(C)NC(=O)Nc1ccccc1CCc1cc(C(C)(C)C)c(O)c(C(C)(C)C)c1
132 to 134 | N#Cc1ccc(NCCO)c([N+](=O)[O-])c1
260 | CCCCc1c[nH]c2ccc(CO)cc2c1=O
160 | CSc1ccc(C(=O)c2cc(-c3ccc(S(C)(=O)=O)cc3)c(N3CCOCC3)s2)cc1
201 to 202 | CCc1[nH]n(C2CCCC2)c2nc(-c3ccccc3C(F)(F)F)nc(=O)c1-2
161 to 164 | COc1ccc(N2CC(CSCCCSc3ccnc(CNc4nc(C)nc(C)c4Cl)c3C)OC2=O)cc1 (configuration not stated)
212 to 214 | CCCOc1ccccc1-c1nc2nc(NCC(C)O)ncc2c(=O)[nH]1 (configuration not stated)
228 to 230 | N#CC(C(=O)NCc1ccccc1Cl)C(=O)c1nn(-c2ccccc2)c2c1CSc1ccccc1-2 (configuration not stated)
148 | COCCNc1ccc(N2CCOC2=O)cc1[N+](=O)[O-]
151 to 153 | O=Cc1c(O)cccc1OCCCC(=O)O
201 to 203 | CC(=O)Nc1nc2c(Oc3cc(-c4ccc(C(F)(F)F)cc4OCc4ccccc4)ncn3)cccc2s1
91 to 92 | CCOC(=O)c1c(CN(CC)CC)nc2sc3c(c2c1-c1ccc(OC)c(OC)c1)CN(C(=O)c1ccc(Cl)cc1)CC3
265 to 266 | CCOc1c(/C=C/c2ccc(NS(C)(=O)=O)cc2)cc(-n2ccc(=O)[nH]c2=O)cc1C(C)(C)C
150 to 152 | N#Cc1ccc(CN2CC=C(/C=C/c3ccc(F)cc3)CC2)cc1

SMILES | melting point [°C]
Cc1cc(C)c2c(c1O)C(N1CCCC1)C1CCCCC21 (configuration not stated) | 96 to 97
CNC1=Nc2sc(Cl)cc2C(c2ccccc2Cl)=NC1 | 259 to 262
NNC(=O)C(CC1CC2CCN1CC2)(c1ccccc1)c1ccccc1 (configuration not stated) | 158 to 160
